Data published in ChEMBL document CHEMBL3864190, “Discovery of Pyrazolopyrimidine Derivatives as Novel Dual Inhibitors of BTK and PI3Kδ” (ACS Med Chem Lett, 2016).

What was measured:
[1] = molecular target: T1, Tyrosine-protein kinase BTK (Homo sapiens, UniProt Q06187); details: at 100 nM
[2] = molecular target: T2, Phosphatidylinositol 4,5-bisphosphate 3-kinase catalytic subunit delta isoform (Homo sapiens) (UniProt O00329); test: Inhibition of PI3Kdelta (unknown origin) using biotinylated PIP2 as substrate at 100 nM in presence of streptavidin-APC by FRET assay
T2 sequence (whole entry): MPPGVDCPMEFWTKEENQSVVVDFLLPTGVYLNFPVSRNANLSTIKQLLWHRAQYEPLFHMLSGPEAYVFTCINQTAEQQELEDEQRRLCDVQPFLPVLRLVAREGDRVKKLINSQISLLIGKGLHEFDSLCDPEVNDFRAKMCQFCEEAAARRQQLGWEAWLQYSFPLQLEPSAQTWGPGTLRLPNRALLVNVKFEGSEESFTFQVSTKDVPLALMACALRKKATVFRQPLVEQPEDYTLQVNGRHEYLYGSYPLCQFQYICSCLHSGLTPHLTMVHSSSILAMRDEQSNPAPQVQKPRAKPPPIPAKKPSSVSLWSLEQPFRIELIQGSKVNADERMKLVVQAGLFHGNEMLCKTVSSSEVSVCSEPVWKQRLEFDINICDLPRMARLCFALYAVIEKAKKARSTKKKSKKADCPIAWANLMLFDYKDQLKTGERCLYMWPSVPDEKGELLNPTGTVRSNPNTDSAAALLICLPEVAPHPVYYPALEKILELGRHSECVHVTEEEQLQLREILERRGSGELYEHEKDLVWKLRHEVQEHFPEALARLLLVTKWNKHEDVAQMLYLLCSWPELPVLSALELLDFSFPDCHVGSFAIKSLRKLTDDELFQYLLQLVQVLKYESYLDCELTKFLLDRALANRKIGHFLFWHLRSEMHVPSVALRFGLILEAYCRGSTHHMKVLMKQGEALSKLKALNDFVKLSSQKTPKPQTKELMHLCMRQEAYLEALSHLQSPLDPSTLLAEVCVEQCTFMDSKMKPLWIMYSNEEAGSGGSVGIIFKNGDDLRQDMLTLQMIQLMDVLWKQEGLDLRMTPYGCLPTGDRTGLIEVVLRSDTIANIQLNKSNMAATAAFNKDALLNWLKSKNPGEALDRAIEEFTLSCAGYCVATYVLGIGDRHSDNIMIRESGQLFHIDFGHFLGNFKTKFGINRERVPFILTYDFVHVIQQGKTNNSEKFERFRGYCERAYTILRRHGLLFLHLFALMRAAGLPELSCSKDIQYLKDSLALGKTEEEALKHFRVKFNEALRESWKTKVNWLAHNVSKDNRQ

[3] = Drug metabolism in mouse liver microsomes assessed as UGT-mediated compound glucuronidation by measuring parent compound remaining at 5 uM after 30 mins in presence of UDPGA by LC-MS/MS analysis; assay type: ADME; details: for remaining at 0.5 h, 5 µM: liver microsomes, read-out: Stability
[4] = AUC in mouse plasma at 10 mg/kg, po by HPLC/MS analysis; assay type: ADME, organism-based; details: in vivo
[5] = Clearance in mouse plasma at 2 mg/kg, iv or 10 mg/kg, po by HPLC/MS analysis; assay type: ADME, organism-based; details: in vivo
[6] = Drug metabolism in mouse liver microsomes assessed as compound oxidation by measuring parent compound remaining at 1 uM after 30 mins in presence of NADPH by LC-MS/MS analysis; assay type: ADME; details: for remaining at 0.5 h, 1 µM: liver microsomes, read-out: Stability
[7] = Oral bioavailability in mouse plasma at 10 mg/kg by HPLC/MS analysis; assay type: ADME, organism-based; details: in vivo
[8] = Drug metabolism in human liver microsomes assessed as compound oxidation by measuring parent compound remaining at 1 uM after 30 mins in presence of NADPH by LC-MS/MS analysis; assay type: ADME; details: for remaining at 0.5 h, 1 µM: liver microsomes, read-out: Stability
[9] = molecular target: T3, Phosphatidylinositol 4,5-bisphosphate 3-kinase catalytic subunit delta isoform (Homo sapiens, UniProt O00329); test: Inhibition of PI3Kdelta (unknown origin) using biotinylated PIP2 as substrate in presence of streptavidin-APC by FRET assay
T3 sequence (O00329 whole entry): T2 sequence (whole entry)

[10] = Efflux ratio of apparent permeability from basolateral to apical side over apical to basolateral side in human Caco2 cells; assay type: ADME, cell-based; details: caco-2
[11] = molecular target: T1, Tyrosine-protein kinase BTK
[12] = Protein binding in mouse plasma; assay type: ADME, cell-free
[13] = Half life in mouse plasma at 10 mg/kg, po by HPLC/MS analysis; assay type: ADME, organism-based; details: in vivo
[14] = Apparent volume of distribution in mouse plasma at 2 mg/kg, iv or 10 mg/kg, po by HPLC/MS analysis; assay type: ADME, organism-based; details: in vivo
[15] = Drug metabolism in dog liver microsomes assessed as compound oxidation by measuring parent compound remaining at 1 uM after 30 mins in presence of NADPH by LC-MS/MS analysis; assay type: ADME, Canis lupus familiaris; details: 0.5 h
[16] = Drug metabolism in rat liver microsomes assessed as compound oxidation by measuring parent compound remaining at 1 uM after 30 mins in presence of NADPH by LC-MS/MS analysis; assay type: ADME; details: microsomes, 0.5 h, 1 µM
[17] = Apparent volume of distribution in mouse plasma at 1 mg/kg, iv or 5 mg/kg, po by HPLC/MS analysis; assay type: ADME, organism-based; details: read-out: Vz
[18] = Drug metabolism in human liver microsomes assessed as UGT-mediated compound glucuronidation by measuring parent compound remaining at 5 uM after 30 mins in presence of UDPGA by LC-MS/MS analysis; assay type: ADME; details: read-out: Stability
[19] = AUC in mouse plasma at 5 mg/kg, po by HPLC/MS analysis; assay type: ADME, organism-based
[20] = Half life in mouse plasma at 5 mg/kg, po by HPLC/MS analysis; assay type: ADME, organism-based
[21] = Oral bioavailability in mouse plasma at 5 mg/kg by HPLC/MS analysis; assay type: ADME, organism-based
[22] = Clearance in mouse plasma at 1 mg/kg, iv or 5 mg/kg, po by HPLC/MS analysis; assay type: ADME, organism-based
[23] = Apparent volume of distribution in mouse plasma at 5 mg/kg, iv or 15 mg/kg, po by HPLC/MS analysis; assay type: ADME, organism-based; details: read-out: Vz
[24] = AUC in mouse plasma at 15 mg/kg, po by HPLC/MS analysis; assay type: ADME, organism-based
[25] = Half life in mouse plasma at 15 mg/kg, po by HPLC/MS analysis; assay type: ADME, organism-based
[26] = Oral bioavailability in mouse plasma at 15 mg/kg by HPLC/MS analysis; assay type: ADME, organism-based
[27] = Clearance in mouse plasma at 5 mg/kg, iv or 15 mg/kg, po by HPLC/MS analysis; assay type: ADME, organism-based

T1 sequence (Q06187 whole entry, canonical isoform): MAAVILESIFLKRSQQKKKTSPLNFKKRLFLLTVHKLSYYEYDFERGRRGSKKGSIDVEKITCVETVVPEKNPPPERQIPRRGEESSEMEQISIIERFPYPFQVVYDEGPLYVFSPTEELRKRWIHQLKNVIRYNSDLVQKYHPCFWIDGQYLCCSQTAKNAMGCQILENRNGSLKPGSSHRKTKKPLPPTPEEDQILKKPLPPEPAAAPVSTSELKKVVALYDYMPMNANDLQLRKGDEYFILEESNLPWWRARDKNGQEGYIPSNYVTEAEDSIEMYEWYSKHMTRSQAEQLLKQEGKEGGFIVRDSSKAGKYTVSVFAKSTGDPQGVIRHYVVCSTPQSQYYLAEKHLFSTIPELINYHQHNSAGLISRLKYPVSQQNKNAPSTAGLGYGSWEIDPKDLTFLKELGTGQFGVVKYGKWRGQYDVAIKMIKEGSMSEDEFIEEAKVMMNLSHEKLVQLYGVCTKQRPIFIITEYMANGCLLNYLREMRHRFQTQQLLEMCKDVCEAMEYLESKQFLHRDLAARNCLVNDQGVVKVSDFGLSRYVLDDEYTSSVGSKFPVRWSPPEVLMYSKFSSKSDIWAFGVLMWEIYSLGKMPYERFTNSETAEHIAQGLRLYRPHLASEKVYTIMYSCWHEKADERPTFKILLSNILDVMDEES

Question: Which inhibition [1] does the source give for `Nc1ncnc2c1c(-c1ccc3c(c1)NCCO3)nn2C1Cc2ccccc2C1` here?
Answer: The inhibition was 57%.

Question: And the inhibition [2]?
Answer: The inhibition was 40%.

Question: And the remaining at 0.5 h, 5 µM [3]?
Answer: The remaining at 0.5 h, 5 µM was 98%.

Question: With `Nc1ncnc2c1c(-c1ccc3[nH]cnc3c1)nn2C1Cc2ccccc2C1` as the compound, how does the remaining at 0.5 h, 5 µM [3] read?
Answer: The remaining at 0.5 h, 5 µM was 90%.

Question: Which inhibition [1] does the source give for `Nc1ncnc2c1c(-c1cc(F)c3c(c1)NCCO3)nn2C1Cc2cc(F)ccc2C1=O` (racemic) here?
Answer: Its inhibition is 6.6%.

Question: What about the inhibition [2] of the same compound?
Answer: The inhibition was 26%.

Question: For `Nc1ncnc2c1c(-c1ccc3cc[nH]c3c1)nn2C1Cc2ccccc2C1`, which inhibition [1] is on record?
Answer: Its inhibition is 46%.

Question: And the inhibition [2]?
Answer: The inhibition was 24%.

Question: For `Nc1ccc2c(c1)CC(n1nc(-c3cc(F)c4c(c3)NCCO4)c3c(N)ncnc31)C2` (single isomer, unassigned; (-)), which AUC [4] is on record?
Answer: The AUC was 15.2 µM·h.

Question: And the CL [5]?
Answer: The CL was 9.83 mL/min/kg.

Question: And the Stability ([6]; microsomes, 0.5 h, 1 µM)?
Answer: Its Stability is 11%.

Question: What about the F [7] of the same compound?
Answer: The F was 40%.

Question: What about the Stability ([8]; microsomes, 0.5 h, 1 µM) of the same compound?
Answer: The Stability was 63%.

Question: What about the IC50 [9] of the same compound?
Answer: Its IC50 is 16 nM.

Question: And the Ratio [10]?
Answer: Its Ratio is 1.7.

Question: And the Stability ([3]; microsomes, 0.5 h, 5 µM)?
Answer: Its Stability is 99%.

Question: And the IC50 [11]?
Answer: The IC50 was 32 nM.

Question: What about the PPB [12] of the same compound?
Answer: The PPB was 98%.

Question: What about the t1/2 [13] of the same compound?
Answer: The t1/2 was 1.3 h.

Question: What about the Vz [14] of the same compound?
Answer: Its Vz is 3.44 L/kg.

Question: What about the Stability [15] of the same compound?
Answer: The Stability was 32%.

Question: What about the Stability [16] of the same compound?
Answer: Its Stability is 46%.

Question: Which results are given for `Nc1cc(-c2nn(C3Cc4ccccc4C3)c3ncnc(N)c23)cc(F)c1F`?
Answer: inhibition [1]: 63%; inhibition [2]: 26%; remaining at 0.5 h, 5 µM [3]: 97%

Question: Which IC50 [11] does the source give for `Nc1ncnc2c1c(-c1ccc(Cl)c(O)c1)nn2C1Cc2ccccc2C1` here?
Answer: Its IC50 is 14 nM.

Question: For `Cc1ccccc1-n1c(Cn2nc(-c3cc(O)cc(F)c3)c3c(N)ncnc32)nc2cccc(C)c2c1=O`, which IC50 [11] is on record?
Answer: The IC50 was over 10000 nM.

Question: Which results are given for `Nc1ncnc2c1c(-c1cc(F)c3c(c1)NCCO3)nn2C1CCc2ccccc2C1` (racemic)?
Answer: inhibition [1]: 34%; inhibition [2]: 52%

Question: What does the source list for `Nc1ncnc2c1c(-c1cc(F)c3c(c1)NCCO3)nn2C1Cc2ccccc2C1`?
Answer: inhibition [1]: 52%; inhibition [2]: 53%; remaining at 0.5 h, 5 µM [3]: 91%

Question: Which remaining at 0.5 h, 1 µM [6] does the source give for `Nc1ncnc2c1c(-c1ccc(Br)c(O)c1)nn2C1Cc2ccccc2C1` here?
Answer: Its remaining at 0.5 h, 1 µM is 53%.

Question: And the Vd [17]?
Answer: Its Vd is 5.9 L/kg.

Question: What about the remaining at 0.5 h, 1 µM [8] of the same compound?
Answer: Its remaining at 0.5 h, 1 µM is 66%.

Question: What about the remaining at 0.5 h, 5 µM [18] of the same compound?
Answer: Its remaining at 0.5 h, 5 µM is 5.2%.

Question: What about the AUC [19] of the same compound?
Answer: Its AUC is 0.213 µM·h.

Question: And the half-life [20]?
Answer: The half-life was 2.3 h.

Question: What about the bioavailability [21] of the same compound?
Answer: Its bioavailability is 6.9%.

Question: What about the clearance [22] of the same compound?
Answer: Its clearance is 63.7 mL/min/kg.

Question: What about the remaining at 0.5 h, 5 µM [3] of the same compound?
Answer: The remaining at 0.5 h, 5 µM was 13%.

Question: With `Nc1cc(-c2nn(C3Cc4ccccc4C3)c3ncnc(N)c23)ccc1F` as the compound, how does the inhibition [1] read?
Answer: The inhibition was 79%.

Question: What about the inhibition [2] of the same compound?
Answer: Its inhibition is 8.2%.

Question: What about the remaining at 0.5 h, 5 µM [3] of the same compound?
Answer: Its remaining at 0.5 h, 5 µM is 92%.

Question: Which Vd [23] does the source give for `COc1ccc(-c2nn(C3Cc4ccccc4C3)c3ncnc(N)c23)cc1O` here?
Answer: The Vd was 6.56 L/kg.

Question: And the AUC [24]?
Answer: Its AUC is 2.37 µM·h.

Question: And the remaining at 0.5 h, 1 µM [6]?
Answer: Its remaining at 0.5 h, 1 µM is 14%.

Question: And the remaining at 0.5 h, 1 µM [8]?
Answer: Its remaining at 0.5 h, 1 µM is 52%.

Question: What about the remaining at 0.5 h, 5 µM [18] of the same compound?
Answer: The remaining at 0.5 h, 5 µM was 7%.

Question: What about the half-life [25] of the same compound?
Answer: The half-life was 6.3 h.

Question: And the bioavailability [26]?
Answer: Its bioavailability is 11%.

Question: And the clearance [27]?
Answer: The clearance was 31.2 mL/min/kg.

Question: What about the remaining at 0.5 h, 5 µM [3] of the same compound?
Answer: Its remaining at 0.5 h, 5 µM is 12%.

Question: For `Nc1ccc2c(c1)CC(n1nc(-c3cc(F)c4c(c3)NCCO4)c3c(N)ncnc31)CC2` (single isomer, unassigned; (-)), which IC50 [9] is on record?
Answer: Its IC50 is 72 nM.

Question: And the IC50 [11]?
Answer: The IC50 was 19 nM.
